Source: patent US7354936B2, “2-phenylpyran-4-one derivatives” (Almirall AG, priority 2000, dated 2008)

What was measured:
COX-2 = target: T1, COX-2 (Homo sapiens, UniProt P35354); assay: COX-2 activity in human whole blood (PGE2, LPS-induced); assay type: cell-based; conditions: for IC50: LPS 24 h at 37° C., PGE2 by ELISA; for Ratio COX-1/COX-2: ratio of COX-1/COX-2 IC50 values
T1 construct: incubated in the presence of LPS (10:g/ml) for 24 h at 37° C. in order to induce the COX-2 expression; from tissue; host or cells: human whole blood (heparinized) from healthy volunteers, LPS-stimulated for 24 h
T1 sequence (P35354 18-604): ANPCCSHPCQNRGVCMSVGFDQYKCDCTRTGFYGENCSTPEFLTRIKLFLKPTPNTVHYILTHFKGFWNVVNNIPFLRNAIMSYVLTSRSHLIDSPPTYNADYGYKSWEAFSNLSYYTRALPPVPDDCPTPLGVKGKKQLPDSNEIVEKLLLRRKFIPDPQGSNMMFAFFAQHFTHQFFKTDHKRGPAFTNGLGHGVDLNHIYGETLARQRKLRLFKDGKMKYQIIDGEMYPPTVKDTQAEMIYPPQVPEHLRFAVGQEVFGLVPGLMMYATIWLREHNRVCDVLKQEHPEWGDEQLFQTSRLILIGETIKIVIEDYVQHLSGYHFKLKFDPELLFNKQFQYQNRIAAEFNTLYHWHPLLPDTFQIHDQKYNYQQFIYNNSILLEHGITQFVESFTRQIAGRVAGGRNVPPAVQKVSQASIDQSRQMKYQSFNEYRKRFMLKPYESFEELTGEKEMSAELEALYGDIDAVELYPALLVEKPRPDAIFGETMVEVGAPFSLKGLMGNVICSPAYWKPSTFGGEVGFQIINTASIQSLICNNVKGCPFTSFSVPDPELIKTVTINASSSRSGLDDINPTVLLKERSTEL
Experimental: (§1) COX-1 and COX-2 Activities in Human Whole Blood
Plasma was separated by centrifugation (10 min at 13000 rpm) and kept at −30° C. until PGE2 levels were measured using an enzyme immunoassay kit (ELISA). […] IC50 values were obtained by non-linear regression using InPlot, GraphPad software on an IBM computer.

COX-1 = target: T2, COX-1 (Homo sapiens, UniProt P23219); assay: COX-1 activity in human whole blood (TXB2, calcium ionophore A23187); assay type: cell-based; conditions: for IC50: 1 h at 37° C., TXB2 by ELISA
T2 construct: Fresh blood from healthy volunteers; from tissue; host or cells: human whole blood (heparinized) from healthy volunteers
T2 sequence (P23219 24-599): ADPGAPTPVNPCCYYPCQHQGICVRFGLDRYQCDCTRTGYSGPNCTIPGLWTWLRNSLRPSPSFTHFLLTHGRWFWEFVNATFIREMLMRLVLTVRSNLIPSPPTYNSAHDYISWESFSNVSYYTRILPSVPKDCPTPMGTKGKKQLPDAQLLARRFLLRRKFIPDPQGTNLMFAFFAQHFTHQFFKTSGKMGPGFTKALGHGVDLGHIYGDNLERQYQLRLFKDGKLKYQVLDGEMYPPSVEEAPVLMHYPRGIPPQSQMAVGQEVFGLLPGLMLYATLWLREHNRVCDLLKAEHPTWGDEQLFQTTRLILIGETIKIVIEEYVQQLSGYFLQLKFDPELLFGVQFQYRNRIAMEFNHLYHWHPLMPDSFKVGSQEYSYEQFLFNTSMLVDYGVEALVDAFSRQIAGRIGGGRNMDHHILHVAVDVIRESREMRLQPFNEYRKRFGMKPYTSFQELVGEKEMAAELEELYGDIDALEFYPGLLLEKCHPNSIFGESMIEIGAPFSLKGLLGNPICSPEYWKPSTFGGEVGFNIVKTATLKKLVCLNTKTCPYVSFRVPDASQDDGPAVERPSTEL
Experimental: as §1
For the COX-1 activity determination, 500:1 aliquots of blood were incubated with either 5:1 vehicle (dimethylsulphoxide) or 5:1 of a test compound for 1 h at 37° C. Calcium ionophore A23187 (25:M) was added 20 min before stopping the incubation. Plasma was separated by centrifugation (10 min at 13000 rpm) and kept at −30° C. until TXB2 levels were measured using an enzyme immunoassay kit (ELISA).
The effect of the compounds was evaluated by incubating each compound at five to six different concentrations with triplicate determinations. IC50 values were obtained by non-linear regression using InPlot, GraphPad software on an IBM computer.

## CC(=O)OCc1cc(=O)c(Oc2ccc(F)cc2)c(-c2ccc(S(C)(=O)=O)cc2)o1 [Example 30, Acetic acid [5-(4-fluorophenoxy)-6-(4-methanesulfonylphenyl)-4-oxo-4H-pyran-2-yl]methyl ester]
COX-2
  IC50: 140 nM
  Ratio COX-1/COX-2: 359
other
  melting point: 180 °C
COX-1
  IC50: 50300 nM

## CC(=O)OCc1cc(=O)c(Oc2ccc(Cl)cc2)c(-c2ccc(S(C)(=O)=O)cc2)o1 [Example 31, Acetic acid [5-(4-chlorophenoxy)-6-(4-methanesulfonylphenyl)-4-oxo-4H-pyran-2-yl]methyl ester]
COX-2
  IC50: 1100 nM
  Ratio COX-1/COX-2: >90
other
  melting point: 115 °C
COX-1; read-out: COX-1 inhibition at 100 μM, at 100 μM
  inhibition at 100 µM: 17%

## CS(=O)(=O)c1ccc(-c2oc(C(=O)O)cc(=O)c2Oc2ccc(F)cc2F)cc1 [Example 32, 5-(2,4-Difluorophenoxy)-6-(4-methanesulfonylphenyl)-4-oxo-4H-pyran-2-carboxylic acid]
COX-2
  IC50: 420 nM
  Ratio COX-1/COX-2: 1070
other
  melting point: 245 °C
COX-1
  IC50: 450000 nM

## Cc1ccc(Oc2c(-c3ccc(S(C)(=O)=O)cc3)oc(C(F)F)cc2=O)cc1 [Example 36, 6-(1,1-Difluoromethyl)-2-(4-methanesulfonylphenyl)-3-(4-methylphenoxy)pyran-4-one]
COX-2
  IC50: 97 nM
  Ratio COX-1/COX-2: 294
other
  melting point: 160 °C
COX-1
  IC50: 28500 nM
